{"source": "patent US20120277517A1", "about": "“Formulation and Methods for Enhanced Interventional Image-Guided Therapy of Cancer” (The Johns Hopkins University, priority 2011, published 2012)", "test_system": "Hep3B cells", "test": "Intratumoral injection with or without AMF hyperthermia in mice with subcutaneous Hep3B tumors", "format": "in vivo, mouse", "details": "may be attributed to hyperthermia", "text": "In another exemplary experiment, Hep3B cells were implanted by subcutaneous injection of 3×10^6 Hep3B cells suspended in PBS into the right flank of each mouse that was randomly assigned into 2 main groups (heated and unheated) that were further divided into three subgroups. When tumors reached 100 mm^3, these received intratumoral injections of T-C formulation, BNF particles alone, or PBS (3 subgroups). The heated group (9 mice) received AMF hyperthermia. Two mice from each subgroup were euthanized 24 hours following treatment, and the remaining one was euthanized when tumor in the PBS group reached 2000 mm^3.\nFor AMF exposure, each mouse was placed in a chamber constructed from a standard polypropylene 50-mL conical centrifuge tube that was positioned in the center of the solenoid coil. Prior to AMF therapy, each mouse received intraperitoneal injections of ketamine/xylazine (anesthesia) at an approximate dose of a 200-μL injection. Each mouse was placed in the coil for 30 min and exposed to one of the following AMF amplitudes: 0, 24, or 60 kA/m. […] During AMF exposure, mice were placed into the AMF inductor coil and therefore exposed to maximum magnetic field, corresponding to the measured (by field probe) field. Rectal and tumor temperatures were measured at one-second intervals for each mouse exposed to AMF using fiber optic temperature probes."}
{"molecule": "COc1cccc2c1C(=O)c1c(O)c3c(c(O)c1C2=O)C[C@@](O)(C(=O)CO)C[C@@H]3O[C@H]1C[C@H](N)[C@H](O)[C@H](C)O1", "note": "[doxorubicin]", "values": [{"measurement": "degradation of doxorubicin", "value": "7-8%"}]}
